Experimental data: patent US11292801B2, “Calpain modulators and therapeutic uses thereof” (Blade Therapeutics, Inc., priority 2016, dated 2022)

Tests used:
[1] = target: T1, Human Calpain 9/NS1 (Homo sapiens, UniProt O14815); assay: Biochemical inhibition of calpain 9, continuous fluorescence (FRET substrate) assay; details: mean, read-out: Human Calpain 9/NS1 IC50 (nM)_MEAN
T1 sequence (O14815 1-690): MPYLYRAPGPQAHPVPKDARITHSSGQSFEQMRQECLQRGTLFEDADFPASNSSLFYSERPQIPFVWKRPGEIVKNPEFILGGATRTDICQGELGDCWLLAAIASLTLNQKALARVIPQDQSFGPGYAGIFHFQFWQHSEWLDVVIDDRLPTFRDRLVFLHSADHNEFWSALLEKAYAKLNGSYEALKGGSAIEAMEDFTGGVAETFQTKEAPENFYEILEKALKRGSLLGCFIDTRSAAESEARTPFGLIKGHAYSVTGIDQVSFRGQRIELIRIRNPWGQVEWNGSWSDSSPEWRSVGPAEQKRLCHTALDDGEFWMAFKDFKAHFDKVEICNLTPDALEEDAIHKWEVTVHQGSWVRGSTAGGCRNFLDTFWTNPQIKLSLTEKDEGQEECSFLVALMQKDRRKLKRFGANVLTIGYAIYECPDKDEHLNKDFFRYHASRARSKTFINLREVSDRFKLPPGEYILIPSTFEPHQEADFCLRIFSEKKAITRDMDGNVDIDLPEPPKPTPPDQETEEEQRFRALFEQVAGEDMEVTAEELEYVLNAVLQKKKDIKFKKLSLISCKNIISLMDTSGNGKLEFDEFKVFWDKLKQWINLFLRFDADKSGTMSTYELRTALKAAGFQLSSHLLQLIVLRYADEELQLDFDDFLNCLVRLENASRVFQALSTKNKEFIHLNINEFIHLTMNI
T1 sequence (P04632 1-268 partner): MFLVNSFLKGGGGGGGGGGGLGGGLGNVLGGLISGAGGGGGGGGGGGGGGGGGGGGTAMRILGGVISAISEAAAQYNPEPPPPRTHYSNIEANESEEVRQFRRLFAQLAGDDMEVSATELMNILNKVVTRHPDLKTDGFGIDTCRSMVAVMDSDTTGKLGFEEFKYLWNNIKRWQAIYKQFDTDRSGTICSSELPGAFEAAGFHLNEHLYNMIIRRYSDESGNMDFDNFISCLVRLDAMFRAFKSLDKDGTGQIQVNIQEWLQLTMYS
Outline: (§1)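 Continuous FRET assay with 5-FAM/QXL520 peptide substrate in 50 mM Tris pH ~7.5, 100 mM NaCl, 1 mM DTT. Enzyme preincubated with inhibitor at 25C; reaction started with substrate plus CaCl2, read at 490/520 nm for 10 min. Rates from slopes over 1-5 min, IC50 from 4-parameter logistic fit.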

[2] = target: T2, Human Calpain 1/NS1 (Homo sapiens, UniProt P07384); assay: Biochemical inhibition of calpain 1, continuous fluorescence (FRET substrate) assay; details: mean, read-out: Human Calpain 1/NS1 IC50 (nM)_MEAN
T2 sequence (P07384 1-714): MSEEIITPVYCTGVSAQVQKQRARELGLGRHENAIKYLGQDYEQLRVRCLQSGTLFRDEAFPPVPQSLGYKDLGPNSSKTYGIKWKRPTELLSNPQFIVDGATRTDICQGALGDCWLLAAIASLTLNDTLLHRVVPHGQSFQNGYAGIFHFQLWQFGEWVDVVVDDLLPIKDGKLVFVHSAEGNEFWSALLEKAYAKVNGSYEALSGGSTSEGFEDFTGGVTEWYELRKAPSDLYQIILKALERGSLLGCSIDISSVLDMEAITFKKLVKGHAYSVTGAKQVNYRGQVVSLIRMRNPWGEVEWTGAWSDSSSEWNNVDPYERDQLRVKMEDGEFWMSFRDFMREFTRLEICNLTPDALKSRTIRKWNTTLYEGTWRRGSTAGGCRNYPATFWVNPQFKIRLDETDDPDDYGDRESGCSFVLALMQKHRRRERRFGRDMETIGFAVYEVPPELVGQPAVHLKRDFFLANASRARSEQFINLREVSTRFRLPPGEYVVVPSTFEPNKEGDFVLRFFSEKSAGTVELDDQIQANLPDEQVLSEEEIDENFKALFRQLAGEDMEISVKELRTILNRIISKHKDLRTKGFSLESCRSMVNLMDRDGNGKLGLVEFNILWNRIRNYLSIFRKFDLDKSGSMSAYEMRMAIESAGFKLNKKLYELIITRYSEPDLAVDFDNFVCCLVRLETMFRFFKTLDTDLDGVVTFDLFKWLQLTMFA
T2 sequence (P04632 1-268 partner): T1 sequence (P04632 1-268 partner)
Outline: as §1

[3] = target: T3, Human Calpain 2/NS1 (Homo sapiens, UniProt P17655); assay: Biochemical inhibition of calpain 2, continuous fluorescence (FRET substrate) assay; details: mean, read-out: Human Calpain 2/NS1 IC50 (nM)_MEAN
T3 sequence (P17655 1-700): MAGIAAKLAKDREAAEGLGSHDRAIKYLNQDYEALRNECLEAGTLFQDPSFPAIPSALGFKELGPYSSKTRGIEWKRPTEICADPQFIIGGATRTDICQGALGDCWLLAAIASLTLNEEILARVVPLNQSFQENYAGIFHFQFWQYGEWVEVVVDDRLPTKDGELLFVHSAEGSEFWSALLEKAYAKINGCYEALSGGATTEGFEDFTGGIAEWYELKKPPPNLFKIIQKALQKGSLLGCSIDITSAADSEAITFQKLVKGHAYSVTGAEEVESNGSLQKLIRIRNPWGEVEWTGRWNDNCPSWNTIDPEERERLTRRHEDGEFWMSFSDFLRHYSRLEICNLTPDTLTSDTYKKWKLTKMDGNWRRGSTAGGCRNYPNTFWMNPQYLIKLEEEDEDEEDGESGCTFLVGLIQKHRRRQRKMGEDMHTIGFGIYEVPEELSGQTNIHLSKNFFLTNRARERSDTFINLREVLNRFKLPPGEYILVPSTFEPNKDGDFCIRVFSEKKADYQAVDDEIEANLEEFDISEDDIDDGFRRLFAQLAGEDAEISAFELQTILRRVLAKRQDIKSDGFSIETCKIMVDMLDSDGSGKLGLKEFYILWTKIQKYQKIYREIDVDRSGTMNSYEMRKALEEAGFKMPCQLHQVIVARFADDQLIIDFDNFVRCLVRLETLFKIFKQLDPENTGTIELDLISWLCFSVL
T3 sequence (P04632 1-268 partner): T1 sequence (P04632 1-268 partner)
Outline: as §1

| IC50 [1] [nM] | IC50 [2] [nM] | IC50 [3] [nM] | SMILES |
| --- | --- | --- | --- |
| < 3000 | < 3000 | < 3000 | O=C[C@@H]1CCCCCOc2ccc(F)c(c2)-c2ccccc2C(=O)N1 [Compound 146, (S)-2^6-fluoro-11-oxo-3-oxa-10-aza-1(1,2),2(1,3)-dibenzenacycloundecaphane-9-carbaldehyde] |
| < 3000 | 3000 to 10000 | < 3000 | O=C[C@@H]1CC=CCCOc2nccc(n2)-c2ccccc2C(=O)N1 [Compound 40, (S)-11-Oxo-3-oxa-10-aza-1(2,3)-pyridina-2(1,3)-benzena-cycloundecaphane-9-carbaldehyde] |
| < 3000 | < 3000 | < 3000 | O=C[C@@H]1CCCCCOc2ccnc(n2)-c2ccccc2C(=O)N1 [Compound 139, (S)-3-oxo-11-oxa-4-aza-1(2,4)-pyrimidina-2(1,2)-benzena-cycloundecaphane-5-carbaldehyde] |
| < 3000 | > 10000 | 3000 to 10000 | COc1ccc(CNC(=O)C(=O)C2CCCCOCCOCc3ccccc3C(=O)N2)cc1 (stereo not drawn) [Compound 100, N-(4-methoxybenzyl)-2-oxo-2-(12-oxo-1,3,4,6,7,8,9,10,11,12-decahydrobenzo[f][1,4]dioxa[9]azacyclotetradecin-10-yl)acetamide] |
| < 3000 | < 3000 | < 3000 | C/C1=C\C[C@@H](C(=O)C(N)=O)NC(=O)c2cc(C)nn2-c2cccc(c2)OCC1 [Compound 145, (S,E)-2-(1^3,6-dimethyl-11-oxo-1H-3-oxa-10-aza-1(1,5)-pyrazola-2(1,3)-benzenacycloundecaphan-6-en-9-yl)-2-oxoacetamide] |
| < 3000 | < 3000 | < 3000 | NC(=O)C(=O)[C@@H]1C/C=C/CCOc2ccnc(n2)-c2ccccc2C(=O)N1 [Compound 137, (S,E)-2-oxo-2-(3-oxo-11-oxa-4-aza-1(2,4)-pyrimidina-2(1,2)-benzenacycloundecaphan-7-en-5-yl)acetamide] |
| < 3000 | < 3000 | < 3000 | NC(=O)C(=O)[C@@H]1CCCCCOc2cccc(c2)-c2ncccc2C(=O)N1 [Compound 130, (S)-2-oxo-2-(11-oxo-3-oxa-10-aza-1(2,3)-pyridina-2(1,3)-benzena-cycloundecaphane-9-yl)acetamide] |
| < 3000 | 3000 to 10000 | < 3000 | CCOc1ccccc1CNC(=O)C(=O)C1CCCCOCCOCc2ccccc2C(=O)N1 (stereo not drawn) [Compound 102, N-(2-ethoxybenzyl)-2-oxo-2-(12-oxo-1,3,4,6,7,8,9,10,11,12-decahydrobenzo[f][1,4]dioxa[9]azacyclotetradecin-10-yl)acetamide] |
| > 10000 | > 10000 | > 10000 | CC(C)(NC(=O)C(=O)C1CCCCOCCOCc2ccccc2C(=O)N1)c1cccnc1 (stereo not drawn) [Compound 124, 2-Oxo-2-(12-oxo-1,3,4,6,7,8,9,10,11,12-decahydrobenzo[f][1,4]dioxa[9]azacyclotetradecin-10-yl)-N-(2-(pyridin-3-yl)propan-2-yl)acetamide] |
| < 3000 | 3000 to 10000 | < 3000 | O=C(NC1CC1)C(=O)[C@@H]1Cc2ccc(cc2)OC/C=C/COc2ccc3c(cnn3-c3ncccc3C(=O)N1)c2 [Compound 69, N-cyclopropyl-2-oxo-2-((5S,E)-3-oxo-1^1H-8,13-dioxa-4-aza-1(1,5)-indazola-2(2,3)-pyridina-7(1,4)-benzenacyclotridecaphan-10-en-5-yl)acetamide] |
| < 3000 | > 10000 | 3000 to 10000 | O=C[C@@H]1CC=CCCCCCc2ncccc2C(=O)N1 [Compound 50, (S)-5-Oxo-6,7,8,11,12,13,14,15-octahydro-5h-pyrido[3,2-c][1]aza-cyclotridecine-7-carbaldehyde] |
| 3000 to 10000 | > 10000 | > 10000 | O=C(NCCc1cccnc1)C(=O)C1CCCCOCCOCc2ccccc2C(=O)N1 (stereo not drawn) [Compound 101, 2-Oxo-2-(12-oxo-1,3,4,6,7,8,9,10,11,12-decahydrobenzo[f][1,4]dioxa[9]aza-cyclotetradecin-10-yl)-N-(2-(pyridin-3-yl)ethyl)acetamide] |
| > 10000 | > 10000 | > 10000 | CC(C)NC(=O)C(=O)[C@@H]1C/C=C\COCCOCc2ccccc2C(=O)N1 [Compound 58, (S,Z)—N-isopropyl-2-oxo-2-(12-oxo-1,3,4,6,9,10,11,12-octahydrobenzo[f][1,4]dioxa[9]azacyclotetradecin-10-yl)acetamide] |
| < 3000 | > 10000 | > 10000 | Cn1cc2c(n1)-c1cccc(c1)OCCCCC[C@@H](C(=O)C(N)=O)NC2=O [Compound 142, (S)-2-(1′-methyl-11-oxo-1^1H-3-oxa-10-aza-1(3,4)-pyrazola-2(1,3)-benzenacycloundecaphane-9-yl)-2-oxoacetamide] |
| < 3000 | 3000 to 10000 | < 3000 | O=C(NCCc1ccc(Cl)cc1)C(=O)[C@@H]1CCCCOCCOCc2ccccc2C(=O)N1 [Compound 128, (S)—N-(4-chlorophenethyl)-2-oxo-2-(12-oxo-1,3,4,6,7,8,9,10,11,12-decahydrobenzo[f][1,4]dioxa[9]azacyclotetradecin-10-yl)acetamide] |
| < 3000 | < 3000 | < 3000 | O=C[C@@H]1Cc2ccc(cc2)CCCCc2ccc3nn(cc3c2)-c2ncccc2C(=O)N1 [Compound 76, (1^3Z,1^4Z,5S)-3-oxo-1^2H-4-aza-1(2,5)-indazola-2(2,3)-pyridina-7(1,4)-benzenacycloundecaphane-5-carbaldehyde] |
| < 3000 | < 3000 | < 3000 | O=C[C@@H]1CCCCCCOc2ccnc(n2)-c2ccccc2C(=O)N1 [Compound 133, (S)-3-oxo-12-oxa-4-aza-1(2,4)-pyrimidina-2(1,2)-benzenacyclododecaphane-5-carbaldehyde] |
| < 3000 | 3000 to 10000 | < 3000 | O=C[C@@H]1Cc2ccccc2CCCCCCOc2ccccc2C(=O)N1 [Compound 20, (S)-19-Oxo-6,7,8,9,10,11,16,17,18,19-decahydrodibenzo[b,h][1]oxa[5]aza-cyclopentadecine-17-carbaldehyde] |
